One series concerns Staphylococcus aureus. The series can be described thus: Antimicrobial screening by agar dilution, Staphylococcus aureus. The series is classed as cell-based. Particulars: after 10, 20, 40 and 60 minutes at all dilutions 1:100, 1:200, 1:400, 1:800. The procedure:
(§1) The antibacterial properties of the synthesized compound 2-benzo-[3,4-b]quinolino-[b,g]indeno[1′,2′:3,4]fluoreno-[1,2-d]oxonine-5,11,16,21-tetraone were studied by the method of agar dilution. Test solutions of each compound was prepared in concentration of 1% using dimethylformamide as a solvent then they are diluted in physiological solution to obtain the final experimental dilutions 1:100, 1:200, 1:400, 1:800. The effect of these substances are compared with furacillin in a controllable study. The testing microbes used were gram positive bacteria Staphylococcus aureus, gram negative bacteria Pseudomonas aeruginosa and Escherichia co/i and Candida albicans fungus. The experiments used for this survey were meat-pentonlu agar (EPA) for cultivation of bacteria and Saburo environment for the fungus. Each experiment used 1 mL of test solution on each plate […]. Two drops of emulsified with microbes feel were added. All experimental samples were taken from the agar after 10, 20, 40, 60 minutes in the environment on the basis of Patrk planted. The bacteria were cultivated at a temperature of 37° C. for 1 day and the mushroom was kept in a thermostat for […] at a temperature of 28° C. Then results were checked.

For another series, the system named is Escherichia coli. The series can be described thus: Antimicrobial screening by agar dilution, Escherichia coli. Type of series: cell-based. Particulars: after 10, 20, 40 and 60 minutes at all dilutions 1:100, 1:200, 1:400, 1:800. The method, then:
as §1

The test system of another series is Pseudomonas aeruginosa. In words: Antimicrobial screening by agar dilution, Pseudomonas aeruginosa. The series is classed as cell-based. Particulars: after 10, 20, 40 and 60 minutes at all dilutions 1:100, 1:200, 1:400, 1:800. The method, then:
as §1

Another series relates to Candida albicans. In words: Antimicrobial screening by agar dilution, Candida albicans. Particulars: after 10, 20, 40 and 60 minutes at all dilutions 1:100, 1:200, 1:400, 1:800. Type of series: cell-based. The procedure: as §1

`O=C1Oc2nc3ccccc3cc2-c2c(c3c4ccccc4c(=O)c3c3c2c(=O)c2ccccc23)C(=O)c2ccccc21` [2-benzo-[3,4-b]quinolino-[b,g]indeno[1′,2′:3,4]fluoreno-[1,2-d]oxonine-5,11,16,21-tetraone] displayed a melting point of 251 °C. Also, in the series on Staphylococcus aureus, the inhibition activity entry was “highest inhibition activity”. The inhibition activity entry in the series on Escherichia coli is recorded as “highest inhibition activity”. Further, the inhibition activity entry in the series with Pseudomonas aeruginosa was “highest inhibition activity”. Besides, the inhibition activity result with Candida albicans is recorded as “highest inhibition activity”.

The record behind these values is patent publication US11970504B1, “2-benzo-[3,4-b] quinolino-{b,g]indeno [1′,2′:3,4] fluoreno-[1,2-d] Oxonine-5,11,16,21-tetraone as an antimicrobial compound” (KING FAISAL UNIVERSITY, priority 2023, dated 2024).
